Reference: patent US5830855A, “Lipodepsipeptides as antifungal and fungicidal agents” (priority 1996, dated 1998)
Numbered stars: 1 amine (or outer) side, 2 acyl side, 3 side chain; on linkers, the order of the positions; unused ones are H or OH. Bridge positions count the residues as written; N and C are the ends. Square brackets hold non-standard residues; d marks the D form. Peptide text beside a SMILES is read from it. * marks the point of attachment. ξ: configuration not given here. Asp(3S-OH) = N[C@H](C(=O)O)[C@H](O)C(=O)O; Thr(4-Cl) = N[C@H](C(=O)O)[C@H](O)CCl; ξAsp(3ξ-OH) = NC(C(=O)O)C(O)C(=O)O; X3 = O=C(C(N[*:1])C(O)CCl)[*:2]; X1 = CCCCCCCCC[C@@H](O)CC(=O)*; X2 = CCCCCCCCCCCC(O)CC(=O)*; dDab = NCC[C@@H](N)C(=O)O; Dab = NCC[CH](N)C(=O)O; Orn = NCCC[CH](N)C(=O)O; hSer = N[CH](CCO)C(=O)O; Dhb = C/C=C(\N)C(=O)O

Columns and labels:
Sheep erythrocytes = experiment: Erythrocyte toxicity (sheep RBC hemolysis, hemoglobin release); type: cell-based; details: 37° C. 1 hr, FIG. 1 and 2
Procedure: Erythrocyte Toxicity: Sheep red blood cell (RBC) hemolysis was used to assess erythrocyte toxicity of the CLPs and AmB. RBCs (MicroBio Products, Inc., Salt Lake City, Utah) were washed four times with phosphate-buffered-saline (PBS) by centrifugation at 800× g for 10 min and adjusted to 1×10^8 cells/ml as previously described by Chavanet, P., V. Joly, D. Rigaud, J. Bolard, C. Carbon, and P. Yeni. 1994. Influence of diet on experimental toxicity of amphotericin B deoxycholate. Antimicrob. Agents Chemother. 38(5):963-968. RBCs and a 2× concentration of SR-E, ST-B or SS-A in PBS were mixed in a 1:1 ratio and incubated at 37° C. for 1 hr. After incubation, cells were pelleted by centrifugation at 800× g for 10 min and the supernatant was collected and the absorbance at 550 nm was determined. […] Distilled water and PBS were used as lysis and hemoglobin retention controls, respectfully, as described by National Committee for Clinical Laboratory Standards. 1992. Reference method for broth dilution antifungal susceptibility testing of yeasts; proposed standard, NCCLS document M27-P (ISBN 1-56238-186-5). NCCLS, Villanova.

[1] = tested on: clinical isolates (fungi); experiment: Broth microdilution MIC, fungal isolates overall; type: cell-based; details: summary range over the fungi tested
From the text: Most of the fungal strains used in the tests were clinical isolates obtained from the University of Texas Health Science Center at San Antonio Fungus Testing Laboratory (San Antonio, Tex.) and the remaining isolates were ATCC strains.
Medium: Liquid RPMI 1640 (RPMI) medium with L-glutamine and without sodium bicarbonate (Sigma Chemical Co., R-6504; St. Louis, Mo.) buffered with 0.165M MOPS (34.54 g/liter) was used for in vitro antifungal tests. The medium was adjusted to pH 7.0 with 10M NaOH and filter sterilized.
Lipodepsipeptide Dilutions: All stock drug solution concentrations were at least 10-fold higher than the highest concentration tested. […]
Preparation of Inoculum Suspensions: On Sabouraud dextose agar (SDA; BBL, Becton and Dickinson and Co., Cockeysville, Md.) all isolates were subcultured at least twice before use to ensure purity and viability. […] The turbidity of each mixed suspension was measured at 530 nm and adjusted to 1×10^6 to 5×10^6 CFU/ml by the NCCLS spectrophotometric method described by National Committee for Clinical Laboratory Standards. […]
Aspergillus fumigatus and Mucor spp. were grown for 1 wk at 35° C. […] The stock suspensions of all filamentous fungi were measured at 530 nm and adjusted to 85-87% transmission. The concentration (1×10^6 to 5×10^6 CFU/ml) was determined by hemacytometer count or plate count on SDA. […]

[2] = tested on: phytohemagglutinin (PHA)-induced lymphocyte proliferation; experiment: PHA-induced lymphocyte proliferation ([3H]-thymidine incorporation); type: cell-based, human
Procedure: Lipodepsipeptide for Immunosuppression Experiments: SR-E was purified as previously described in Bidwai, A. P., Bachmann, R. C. and Takemoto, J. Y., "Mechanism of action of Pseudomonas syringae phytotoxin syringomycin". Plant Physiol. 83:39-43 (1987). A stock solution (10 mg per ml) was prepared in RPMI1640 culture media, aliquoted and stored frozen at -20°.
Lymphocyte stimulation: Lymphocyte stimulation was performed with three different mitogens: phytohemagglutinin (PHA), pokeweed mitogen (PWM), and monoclonal antibody to CD3 (anti-CD3). […]
Mitogen-induced lymphocyte proliferation: Peripheral blood mononuclear cells (MNC) (containing lymphocytes and monocytes) were separated by Ficoll-Hypaque density-gradient centrifugation using techniques well known in the art. Mitogen-induced lymphocyte proliferation was determined as previously described in Singh, V. K., "Stimulatory effect of corticotropin-releasing neurohormone on human lymphocyte proliferation and interleukin-2 receptor expression". […]
[^3 H]-thymadine Incorporation: Cells were pulse-labeled for 4 hours with 0.5 μCi/well of [^3 H]methyl-thymidine (spec. act.=25 Ci/mmol from Amersham Intl.). […] To each vial, 2 ml of CytoScint fluid (ICN Biomedicals) was dispensed and the radioactivity determined using a liquid scintillation counter (Tri-Carb, Packard). […]

Row | SMILES | erythrocyte toxicity (lysis, hemoglobin release) (Sheep erythrocytes) | antifungal activity (overall range) [1] [g/mL] | significant inhibition of PHA response ([2]; 1.14 μM) | suppression of PHA response ([2]; 5.72 μM, p=0.026) [%]
1 | C/C=C1\NC(=O)C(C(C)O)NC(=O)C(CCCN)NC(=O)C(CCO)NC(=O)CNC(=O)C(CCN)NC(=O)C(NC(=O)CC(O)CCCCCCCCCCC)COC(=O)C(C(O)CCl)NC(=O)C(C(O)C(=O)O)NC1=O (stereo not shown) [ST-B, Syringotoxin B] (X2-S[Dab]G[hSer][Orn]T[Dhb][ξAsp(3ξ-OH)][X3]; ester 1-C; configuration not given here) | least toxic of the three CLPs | 0.8 to 200 | – | –
2 | C/C=C1\NC(=O)[C@H](Cc2ccccc2)NC(=O)[C@H](CCCN=C(N)N)NC(=O)[C@@H](CCN)NC(=O)[C@H](CCN)NC(=O)[C@@H](CO)NC(=O)[C@@H](NC(=O)C[C@H](O)CCCCCCCCC)COC(=O)[C@H]([C@H](O)CCl)NC(=O)[C@H]([C@H](O)C(=O)O)NC1=O [SR-E, Syringomycin-E] (X1-S[dS][Dab][dDab]RF[Dhb][Asp(3S-OH)][Thr(4-Cl)]; ester 1-C) | – | – | not | 25
